In patent US20200397795A1, “PROPHYLACTIC TREATMENT OF VENOUS THROMBOEMBOLISM” (JANSSEN PHARMACEUTICALS, INC., priority 2019, published 2020):

Test system: venous thromboembolism (VTE) in patients hospitalized for acute medical illness
Assay: MAGELLAN (Study 1): efficacy of oral rivaroxaban 10 mg OD 35 days vs sc enoxaparin 40 mg OD 10 days then placebo
Format: in vivo
Experimental: The objective of Study 1 (MAGELLAN or MAGELLAN Study) was to compare efficacy and safety of venous thromboembolism (VTE) prophylaxis with oral rivaroxaban 10 mg once daily administered for 35±4 days (hereafter referred to as 35 days or Day 35) to subcutaneous enoxaparin 40 mg once daily (OD) administered for 10±4 days (hereafter referred to as 10 days or Day 10) in men and women aged 40 years or above, who have been hospitalized for a medical illness.
Diagnosis and main criteria for inclusion in Study 1 was men and women 40 years or above and at risk for VTE being hospitalized for acute medical illness conditions, including: heart failure (New York Heart Association [NYHA] class III or IV); active cancer (e.g., admitted for chemotherapy or for the treatment of a complication of active cancer); acute ischemic stroke; acute infectious and inflammatory diseases, including acute rheumatic diseases; and acute respiratory insufficiency. Also at least one additional risk factor for VTE, including: severe varicosis (varicosities); chronic venous insufficiency; history of cancer; history of deep vein thrombosis (DVT) or pulmonary embolism (PE); history of heart failure (NYHA class III or IV); thrombophilia (hereditary or acquired); recent major surgery (6-12 weeks); recent serious trauma (6-12 weeks); hormone replacement therapy; advanced age greater than or equal to 75 years; morbid obesity (body mass index (BMI) 35 kg/m^2 or higher); and acute infectious disease contributing to hospitalization.
The study was conducted in a prospective, randomized, double-blind, double dummy, active comparator-controlled, multicenter and multinational design. There were 8101 subjects were randomized at 556 study centers in 52 countries to one of the two treatment groups. Of the 8101 randomized subjects, 4050 were randomized to active rivaroxaban and 4051 were randomized to active enoxaparin.
Primary Endpoints: The primary efficacy variable was a composite of the number of events of: asymptomatic proximal DVT in lower extremity detected by mandatory bilateral lower extremity venous ultrasonography; symptomatic DVT in lower extremity, proximal or distal; symptomatic, non-fatal PE; and VTE-related death defined as either a well-documented fatal PE, or sudden death with no other plausible explanation. The two primary efficacy endpoints were (i) test of superiority at Day 35 (Days 29-41, inclusive) and (ii) test of non-inferiority at Day 10 (Days 6-15, inclusive).
Secondary Endpoints: The first major secondary efficacy endpoint was defined as a composite of the test of superiority at Day 35 with component of VTE-related death substituted by all-cause mortality, up to Day 35. The second major efficacy secondary efficacy endpoint was the test for superiority at Day 10 using the same composite endpoint as the Day 10 non-inferiority test.
For both primary efficacy endpoints, the relative risk ratio (rivaroxaban/enoxaparin) with respect to the incidences of the primary efficacy endpoint was estimated based on a stratified estimator using Mantel-Haenszel weights (based on sample sizes by geographic region). The corresponding asymptotic 2-sided 95% confidence interval based on the approximation to the normal distribution was determined. Sensitivity analyses were performed for the primary efficacy endpoints.
The primary efficacy variable was a composite of the number of events of (1) asymptomatic proximal DVT in lower extremity detected by mandatory bilateral lower extremity venous ultrasonography; (2) symptomatic DVT in lower extremity, proximal or distal; (3) symptomatic, nonfatal PE; and (4) VTE-related death. […]

[1] = Day 10 + 5, PP Day 10 plus major and clinically relevant bleeds
[2] = Day 10 + 5, per protocol Day 10 analysis set
[3] = Day 10 + 5 up to Day 35 + 6, mITT (Day 10 to Day 35) analysis set
[4] = Day 10 + 5 up to Day 35 + 6, mITT (Day 10 to Day 35) analysis set, listed as enoxaparin
[5] = Day 35 + 6, mITT Day 35 analysis set
[6] = Day 35 + 6, mITT Day 35 analysis set, listed as enoxaparin
[7] = Day 35 + 6, mITT Day 35 plus major and clinically relevant bleeds

Enoxaparin
Major vascular events (CV death, acute myocardial infarction, or acute ischemic stroke), incidence (Day 10): 1.0%
Symptomatic VTE excluding VTE-related death, incidence (Day 10): 0.3%
Symptomatic VTE including death, incidence (Day 10): 0.6%
Net clinical benefit component: asymptomatic lower proximal deep vein thrombosis [1]: 71 (2.4%)
Net clinical benefit component: clinically relevant non-major bleeding [1]: 32 (1.1%)
Net clinical benefit component: death (pulmonary embolism) [1]: 6 (0.2%)
Net clinical benefit component: major bleeding [1]: 4 (0.1%)
Net clinical benefit component: symptomatic deep vein thrombosis in lower extremity [1]: 6 (0.2%)
Net clinical benefit component: symptomatic non-fatal pulmonary embolism [1]: 2 (<0.1%)
Net clinical benefit component: venous thromboembolism related death [1]: 6 (0.2%)
Net clinical benefit, any event, incidence [1]: 118 (3.9%)
Net clinical benefit, any event, incidence (Day 10 + 5, PP Day 10 plus major and clinically relevant bleeds, listed as enoxaparin): 3.9%
Asymptomatic proximal deep vein thrombosis in lower extremity, incidence [2]: 71 (2.4%)
Death (pulmonary embolism cannot be excluded), incidence [2]: 6 (0.2%)
Primary efficacy composite, any event, incidence [2]: 82 (2.7%)
Symptomatic deep vein thrombosis in lower extremity, incidence [2]: 6 (0.2%)
Symptomatic non-fatal pulmonary embolism, incidence [2]: 2 (<0.1%)
Venous thromboembolism related death, incidence [2]: 6 (0.2%)
Primary efficacy composite, any event, incidence (Day 10 + 5, per protocol Day 10 analysis set, listed as enoxaparin): 2.7%
Asymptomatic proximal deep vein thrombosis in lower extremity, incidence [3]: 89 (2.9%)
Death (pulmonary embolism cannot be excluded), incidence [3]: 15 (0.5%)
Death (pulmonary embolism), incidence [3]: 0%
Symptomatic deep vein thrombosis in lower extremity, incidence [3]: 7 (0.2%)
Symptomatic non-fatal pulmonary embolism, incidence [3]: 10 (0.3%)
Venous thromboembolism related death, incidence [3]: 15 (0.5%)
Primary efficacy composite, any event, incidence (Day 10 + 5 up to Day 35 + 6, mITT (Day 10 to Day 35) analysis set, rivaroxaban-placebo phase): 114 (3.8%)
Primary efficacy composite, any event, incidence (Day 10 + 5 up to Day 35 + 6, mITT (Day 10 to Day 35) analysis set, rivaroxaban-placebo phase, listed as enoxaparin): 3.8%
Asymptomatic proximal deep vein thrombosis in lower extremity, incidence [4]: 2.9%
Venous thromboembolism related death, incidence [4]: 0.5%
Major vascular events, incidence (Day 35): 1.6%
Symptomatic VTE excluding VTE-related death, incidence (Day 35): 0.7%
Symptomatic VTE including death, incidence (Day 35): 1.4%
Asymptomatic proximal deep vein thrombosis in lower extremity, incidence [5]: 133 (4.4%)
Death (pulmonary embolism cannot be excluded), incidence [5]: 29 (0.9%)
Death (pulmonary embolism), incidence [5]: 1 (<0.1%)
Primary efficacy composite, any event, incidence [5]: 175 (5.7%)
Symptomatic deep vein thrombosis in lower extremity, incidence [5]: 15 (0.5%)
Symptomatic non-fatal pulmonary embolism, incidence [5]: 14 (0.5%)
Venous thromboembolism related death, incidence [5]: 30 (1.0%)
Asymptomatic proximal deep vein thrombosis in lower extremity, incidence [6]: 4.4%
Primary efficacy composite, any event, incidence [6]: 5.7%
Venous thromboembolism related death, incidence [6]: 1.0%
Net clinical benefit component: asymptomatic lower proximal deep vein thrombosis [7]: 133 (4.3%)
Net clinical benefit component: clinically relevant non-major bleeding [7]: 52 (1.7%)
Net clinical benefit component: death (pulmonary embolism cannot be excluded) [7]: 29 (0.9%)
Net clinical benefit component: death (pulmonary embolism) [7]: 1 (<0.1%)
Net clinical benefit component: major bleeding [7]: 15 (0.5%)
Net clinical benefit component: symptomatic deep vein thrombosis in lower extremity [7]: 15 (0.5%)
Net clinical benefit component: symptomatic non-fatal pulmonary embolism [7]: 14 (0.5%)
Net clinical benefit component: venous thromboembolism related death [7]: 30 (1.0%)
Net clinical benefit, any event, incidence [7]: 240 (7.8%)
Net clinical benefit, any event, incidence (Day 35 + 6, mITT Day 35 plus major and clinically relevant bleeds, listed as enoxaparin): 7.8%
Composite endpoint including all-cause mortality, incidence (Day 35, mITT Day 35 expanded): 9.2%
All-cause mortality, incidence (Day 90): 6.2%
Major vascular events, incidence (Day 90): 2.8%
Symptomatic VTE excluding VTE-related death, incidence (Day 90): 0.9%
Symptomatic VTE including death, incidence (Day 90): 1.9%
